Data on two molecules can be found in patent publication US8187373B2, “Printing inks for offset and/or high printing containing NIR absorbers and NIR absorbers soluble in offset and/or high printing inks” (BASF SE, priority 2004, dated 2012).

Series [1] can be described thus: Extinction of a thin layer of printing varnish containing NIR absorber (absorption spectrum 400-1000 nm). In kind it is physicochemical. The conditions noted are these: 1.0% by weight NIR absorber. The protocol:
Two conventional varnishes for the preparation of offset printing inks were used for the test. Varnishes are prepared formulations comprising binder and solvent, but as yet without colorant. In this way, it is possible to study the behavior of the NIR absorber also spectroscopically without interference by the colorant.
A varnish for the preparation of heatset inks comprising about 45% by weight of a low-aromatics mineral oil (boiling range from 240 to 270° C.), about 45% by weight of a rosin-modified phenol resin and about 10% by weight of an alkyd resin was used, as well as a varnish for the preparation of sheet-fed offset inks comprising about 45% by weight of a low-aromatics mineral oil (boiling range from 260 to 290° C.), about 45% by weight of a rosin-modified phenol resin and about 10% by weight of linseed oil.
Furthermore, a thin layer of above liquids was produced and was investigated spectroscopically. For this purpose, the above liquids were diluted 1:5 with dichloromethane, and the resulting solution was applied to a microscope slide by means of a knife coater so that, after evaporation of the dichloromethane, a layer of about 2 μm thick remained. An absorption spectrum (400-1000 nm) of this layer was then recorded after 2 hours.

Series [2] is described as follows: Testing of the NIR absorbers in yellow heatset offset printing ink, printed on paper. In kind it is physicochemical. Particulars: 0.5% by weight in commercial yellow heatset offset printing ink. The procedure: In each case 0.5% by weight of the absorber A1 or A2 not according to the invention was added to a commercial yellow heatset offset printing ink, and the mixtures were thoroughly stirred.
Samples of the inks obtained were printed on paper.
The procedure was as in the comparative example, except that in each case 0.5% by weight of the novel NIR absorber B2 or B4 was used.

Regarding `CCN1/C(=C/C=C2\CCC(/C=C/C3=[N+](CC)c4ccccc4C3(C)C)=C2Cl)C(C)(C)c2ccccc21` [Compound A2], in series [1], the “extinction E at 810 nm” value is reported as < 0.01. For the same molecule, the “dissolution of NIR absorber in the offset ink” value in series [2] is given as “did not dissolve”.

With `CCN1/C(=C/C=C2\CCC(/C=C/C3=[N+](CC)c4ccccc4C3(C)C)=C2Cl)C(C)(C)c2ccccc21` [Compound B4], the “extinction E at 810 nm” value in series [1] is on record as 0.83. For the same molecule, in series [2], the “dissolution of NIR absorber in the offset ink” value was “dissolved completely”.
